The record followed here is ChEMBL document CHEMBL1155809, “Design, synthesis, and antihepatocellular carcinoma activity of nitric oxide releasing derivatives of oleanolic acid” (J Med Chem, 2008).

For data set [1], the system named is HEK293. Briefly: Cytotoxicity against human HEK293 cells assessed as levels of nitric oxide production at 100 uM after 30 to 300 mins by colorimetric assay. In kind it is functional, cell-based.
Data set [2] relates to HeLa. Briefly: Cytotoxicity against human HeLa cells assessed as cell death by lactate dehydrogenase release assay. In kind it is functional, cell-based.
The subject of data set [3] is HepG2. Briefly: Cytotoxicity against human HepG2 cells assessed as cell death at 0.001 uM after 24 hrs by lactate dehydrogenase release assay. In kind it is functional.
Data set [4] relates to HepG2. Briefly: Cytotoxicity against human HepG2 cells assessed as cell death at 0.01 uM after 24 hrs by lactate dehydrogenase release assay. The class given is functional.
The nature of data set [5]: Cytotoxicity against human Hep3B cells assessed as cell death at 0.01 uM after 24 hrs by lactate dehydrogenase release assay. In kind it is functional, Hep 3B2.
Data set [6] is described as follows: Cytotoxicity against human Hep3B cells assessed as cell death at 0.001 uM after 24 hrs by lactate dehydrogenase release assay. In kind it is functional, Hep 3B2.
In data set [7] the test system is MCF7. The data set is described as follows: Cytotoxicity against human MCF7 cells assessed as cell death by lactate dehydrogenase release assay. In kind it is functional, cell-based.
In data set [8] the test system is HepG2. Briefly: Cytotoxicity against human HepG2 cells assessed as cell death at 0.1 uM after 24 hrs by lactate dehydrogenase release assay. In kind it is functional.
Data set [9] relates to PC-3. Briefly: Cytotoxicity against human PC3 cells assessed as cell death by lactate dehydrogenase release assay. In kind it is functional, cell-based.
In data set [10] the test system is HeLa. Briefly: Cytotoxicity against human HeLa cells assessed as levels of nitric oxide production at 100 uM after 30 to 300 mins by colorimetric assay. In kind it is functional, cell-based.
The nature of data set [11]: Cytotoxicity against human Hep3B cells assessed as cell death at 0.1 uM after 24 hrs by lactate dehydrogenase release assay. In kind it is functional, Hep 3B2.
In data set [12] the test system is HepG2. The data set is described as follows: Cytotoxicity against human HepG2 cells assessed as cell death at 1 uM after 24 hrs by lactate dehydrogenase release assay. The class given is functional.
Data set [13] can be described thus: Cytotoxicity against human Hep3B cells assessed as cell death at 1 uM after 24 hrs by lactate dehydrogenase release assay. In kind it is functional, Hep 3B2.
Data set [14] concerns HepG2. The data set is described as follows: Cytotoxicity against human HepG2 cells assessed as levels of nitric oxide production at 100 uM after 30 to 300 mins by colorimetric assay. In kind it is functional, cell-based.
In a further data set the test system is Hep 3B2. Briefly: Cytotoxicity against human Hep3B cells assessed as levels of nitric oxide production at 100 uM after 30 to 300 mins by colorimetric assay. In kind it is functional, cell-based.
Data set [15] has as its system PC-3. Briefly: Cytotoxicity against human PC3 cells assessed as levels of nitric oxide production at 100 uM after 30 to 300 mins by colorimetric assay. The class given is functional, cell-based.
Data set [16] has as its system MCF7. The data set is described as follows: Cytotoxicity against human MCF7 cells assessed as levels of nitric oxide production at 100 uM after 30 to 300 mins by colorimetric assay. The class given is functional, cell-based.
The subject of data set [17] is HEK293. The data set is described as follows: Cytotoxicity against HEK293 cells assessed as cell death by lactate dehydrogenase release assay. The class given is functional, cell-based. Conditions: Homo sapiens.
A short description of data set [18]: Antitumor activity against human Hep3B cells xenografted in non-obese diabetic SCID mouse assessed as reduction in tumor size at 15 mg/kg, ip after 35 days. The class given is functional, Hep 3B2. Conditions: route intraperitoneal.
A further data set relates to Mus musculus. The data set is described as follows: Toxicity in BALB/c mouse at 15 to 100 mg/kg, ip daily for 3 days assessed after 15 days. Conditions: in vivo, 360 h. Details: dose 15-100 mg/kg, route intraperitoneal. The class given is organism-based.
A short description of data set [19]: Antitumor activity against human Hep3B cells xenografted in non-obese diabetic SCID mouse assessed as reduction in tumor weight at 15 mg/kg, ip after 35 days. Conditions: route intraperitoneal. In kind it is functional, Hep 3B2. (In general: In xenograft studies the graft and the host belong to different species.)

The source made the active and inactive calls. No cut-off for these calls is given here.

Consider `CC1(C)CC[C@]2(C(=O)O)CC[C@]3(C)C(=CC[C@@H]4[C@@]5(C)CC[C@H](OC(=O)CCC(=O)OCc6cccc(Oc7no[n+]([O-])c7S(=O)(=O)c7ccccc7)c6)C(C)(C)[C@@H]5CC[C@]43C)[C@@H]2C1`, for which the outcome in the data set with HEK293 [1], in the data set with HeLa [2], with MCF7 [7], with PC-3 [9], with HeLa [10] and in the data set on PC-3 [15] was inactive. Also, the outcome in the data set with MCF7 [16] and in the data set on HEK293 [17] was inactive. Also, the Activity (in the data set on HepG2 [3]; in the data set on HepG2 [4]; in data set [5]; in data set [6]; in the data set on HepG2 [8]; in data set [11]) was 0% each time. Also, the Activity (in the data set on HepG2 [12]; in data set [13]) was 0% in each case. The result with HepG2 [14] and in the data set with Hep 3B2 was Active.
As for `CC(CCOc1no[n+]([O-])c1S(=O)(=O)c1ccccc1)OC(=O)CCC(=O)O[C@H]1CC[C@]2(C)[C@H]3CC=C4[C@@H]5CC(C)(C)CC[C@]5(C(=O)O)CC[C@@]4(C)[C@]3(C)CC[C@H]2C1(C)C` (some centres not stated), the Activity is recorded as 232 mm3 in [18]; 1.7% in the data set with HepG2 [3]; “Non-toxic” in the data set with Mus musculus; 13.34% with HepG2 [4]; 14.23% in data set [5]; 4.7% in data set [6]. The Activity with HepG2 [8] is given as 93.5%; in data set [11], 92.4%; in the data set on HepG2 [12] it was 100%; in [13], 100%; in [19], 0.262 g. In addition, the result in the data set on HEK293 [1], with HeLa [2], in the data set on MCF7 [7], with PC-3 [9], in the data set on HeLa [10] and with PC-3 [15] was inactive. Moreover, the outcome in the data set on MCF7 [16] and with HEK293 [17] was inactive. The outcome with HepG2 [14] and with Hep 3B2 was Active.
Consider `CC1(C)CC[C@]2(C(=O)O)CC[C@]3(C)C(=CC[C@@H]4[C@@]5(C)CC[C@H](OC(=O)CCC(=O)OCC#CCOc6no[n+]([O-])c6S(=O)(=O)c6ccccc6)C(C)(C)[C@@H]5CC[C@]43C)[C@@H]2C1`, for which the outcome with HEK293 [1], with HeLa [2], with MCF7 [7], in the data set on PC-3 [9], with HeLa [10] and with PC-3 [15] was inactive. Also, the result in the data set on MCF7 [16] and in the data set on HEK293 [17] was inactive. Also, the Activity was found to be 0% in the data set with HepG2 [3]; 10.07% in the data set with HepG2 [4]; 8.42% in data set [5]; 0% in [6]; 13.68% with HepG2 [8]; 19.61% in [11]. The figures for the Activity (with HepG2 [12]; in [13]) were 67.41% and 72.51%, respectively. Besides, the result with HepG2 [14] and in the data set with Hep 3B2 was Active.
`CC1(C)CC[C@]2(C(=O)O)CC[C@]3(C)C(=CC[C@@H]4[C@@]5(C)CC[C@H](OC(=O)CCC(=O)OCCCCOc6no[n+]([O-])c6S(=O)(=O)c6ccccc6)C(C)(C)[C@@H]5CC[C@]43C)[C@@H]2C1`: the result with HEK293 [1], in the data set on HeLa [2], in the data set on MCF7 [7], in the data set on PC-3 [9], in the data set with HeLa [10] and in the data set with PC-3 [15] was inactive. Also, the outcome in the data set on MCF7 [16] and with HEK293 [17] was inactive. In addition, the Activity worked out at 2.6% in the data set on HepG2 [3]; 10.96% in the data set with HepG2 [4]; 7.52% in data set [5]; 0% in data set [6]; 56.35% in the data set with HepG2 [8]; 61.18% in data set [11]. Also, the values for the Activity (in the data set with HepG2 [12]; in [13]) were 98.16% and 100%, respectively. Moreover, the outcome in the data set with HepG2 [14] and in the data set with Hep 3B2 was Active.
For the molecule `CC(CCOc1no[n+]([O-])c1S(=O)(=O)c1ccccc1)OC(=O)[C@]12CCC(C)(C)C[C@H]1C1=CC[C@@H]3[C@@]4(C)CC[C@H](OC(=O)C(F)(F)F)C(C)(C)[C@@H]4CC[C@@]3(C)[C@]1(C)CC2` (some centres not stated), the outcome in the data set on HEK293 [1], with HeLa [2], in the data set on MCF7 [7], in the data set with PC-3 [9], in the data set with HeLa [10] and with PC-3 [15] was inactive. For the same molecule, the outcome in the data set with MCF7 [16] and in the data set on HEK293 [17] was inactive. Moreover, the Activity (with HepG2 [3]; in the data set on HepG2 [4]; in [5]; in data set [6]; in the data set on HepG2 [8]; in data set [11]) was 0% each time. Also, the Activity (with HepG2 [12]; in [13]) was 0% in each case. Moreover, the result in the data set with HepG2 [14] and with Hep 3B2 was Active.
With `CC1(C)CC[C@]2(C(=O)O)CC[C@]3(C)C(=CC[C@@H]4[C@@]5(C)CC[C@H](OC(=O)CCC(=O)OCc6c(-c7ccccc7)no[n+]6[O-])C(C)(C)[C@@H]5CC[C@]43C)[C@@H]2C1`, the outcome with HEK293 [1], in the data set on HeLa [2], in the data set on MCF7 [7], in the data set on PC-3 [9], in the data set with HeLa [10] and in the data set with PC-3 [15] was inactive. The result with MCF7 [16] and in the data set on HEK293 [17] was inactive. The Activity (in the data set on HepG2 [3]; in the data set on HepG2 [4]; in [5]; in data set [6]; in the data set with HepG2 [8]; in data set [11]) was 0% in each case. The Activity (in the data set on HepG2 [12]; in data set [13]) was 0% each time. Further, the outcome in the data set with HepG2 [14] and with Hep 3B2 was Active.
As to `CC1(C)CC[C@]2(C(=O)O)CC[C@]3(C)C(=CC[C@@H]4[C@@]5(C)CC[C@H](OC(=O)CCC(=O)NCCOc6no[n+]([O-])c6S(=O)(=O)c6ccccc6)C(C)(C)[C@@H]5CC[C@]43C)[C@@H]2C1`, the result with HEK293 [1], with HeLa [2], in the data set on MCF7 [7], in the data set on PC-3 [9], with HeLa [10] and in the data set with PC-3 [15] was inactive. Further, the outcome with MCF7 [16] and in the data set on HEK293 [17] was inactive. Further, the Activity in the data set on HepG2 [3] worked out at 0%; in the data set on HepG2 [4], 8.51%; in data set [5], 5.26%; in [6], 0%; in the data set on HepG2 [8], 13.01%; in data set [11], 16.34%. In addition, the Activity in the data set on HepG2 [12] was found to be 74.53%; in [13], 66.21%. The outcome with HepG2 [14] and with Hep 3B2 was Active.
Regarding `C[C@H](CCC(=O)O)[C@H]1CC[C@H]2[C@@H]3[C@@H](O)C[C@@H]4C[C@H](O)CC[C@]4(C)[C@H]3CC[C@]12C` [URSODIOL], the result with HEK293 [1], in the data set with HeLa [2], in the data set on MCF7 [7], in the data set with PC-3 [9], in the data set on HeLa [10] and in the data set on PC-3 [15] was inactive. Moreover, the result with MCF7 [16] and with HEK293 [17] was inactive. Further, the Activity (in the data set with HepG2 [3]; in the data set with HepG2 [4]; in data set [5]; in [6]; with HepG2 [8]; in [11]) was 0% in each case. In addition, the Activity (with HepG2 [12]; in data set [13]) was 0% in each case. The result with HepG2 [14] and with Hep 3B2 was Active.
